Measured values: US7101878B1 (Agouron Pharmaceuticals, Inc., priority 1998, dated 2006)

Molecular target: T1, mouse GnRH receptor (Mus musculus, UniProt Q01776)
T1 construct: expressed in transfected cells; host or cells: 293 cells
T1 sequence (Q01776 1-327): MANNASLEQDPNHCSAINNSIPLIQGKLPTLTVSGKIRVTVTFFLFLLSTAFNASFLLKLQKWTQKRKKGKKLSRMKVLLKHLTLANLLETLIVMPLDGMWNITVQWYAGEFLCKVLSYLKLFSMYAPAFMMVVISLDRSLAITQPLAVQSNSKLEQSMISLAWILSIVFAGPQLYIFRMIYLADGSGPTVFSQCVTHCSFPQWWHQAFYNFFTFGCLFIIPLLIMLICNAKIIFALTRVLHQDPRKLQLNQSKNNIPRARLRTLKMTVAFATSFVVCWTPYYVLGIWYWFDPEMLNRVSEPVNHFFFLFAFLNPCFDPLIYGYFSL
Test: Radioligand binding, 125I-GnRH-A, 293 cells expressing mouse GnRH receptors
Conditions: 10 uM
How it was run: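 Bound label captured on 0.1% polyethyleneimine-treated GF/C filters, washed three times with PBS, counted. IC50 derived; identical set-up for every species.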

% Inhib. @ 10 uM mGnRH [%] | Compound
103 | Cc1cc2c(cc1Cc1ccc(C(=O)NC(CO)C(C)C)o1)C(C)(C)CCC2(C)C (stereo not drawn) [drawing 1479]

Same assay, conditions: 10 uM; read-out: % Inhib. @ 10 uM mGnRH

inhibition at 10 µM [%] | Compound
101 | Cc1cc2c(cc1Cc1ccc(C(=O)NCC(O)c3ccccc3)o1)C(C)(C)CCC2(C)C (stereo not drawn) [drawing 1470]
58 | Cc1cc2c(cc1Cc1ccc(C(=O)N(C)CCC=C3c4ccccc4CCc4ccccc43)o1)C(C)(C)CCC2(C)C [drawing 1472]
91 | Cc1cc2c(cc1Cc1ccc(C(=O)N(CCC#N)Cc3cccnc3)o1)C(C)(C)CCC2(C)C [drawing 1473]
76 | Cc1cc2c(cc1Cc1ccc(C(=O)N(Cc3ccc(C(C)C)cc3)Cc3cccnc3)o1)C(C)(C)CCC2(C)C [drawing 1474]
80 | Cc1cc2c(cc1Cc1ccc(C(=O)N(Cc3cccnc3)Cc3cccc(C(F)(F)F)c3)o1)C(C)(C)CCC2(C)C [drawing 1475]
87 | Cc1cc2c(cc1Cc1ccc(C(=O)NC(CO)C(C)C)o1)C(C)(C)CCC2(C)C (stereo not drawn) [drawing 1478]
66 | CCCN(Cc1ccc([N+](=O)[O-])cc1)C(=O)c1ccc(Cc2cc3c(cc2C)C(C)(C)CCC3(C)C)o1 [drawing 1480]
89 | CCC(CO)NC(=O)c1ccc(Cc2cc3c(cc2C)C(C)(C)CCC3(C)C)o1 (stereo not drawn) [drawing 1481]
97 | Cc1cc2c(cc1Cc1ccc(C(=O)NCc3ccc(F)cc3)o1)C(C)(C)CCC2(C)C [drawing 1482]
42 | Cc1cc2c(cc1Cc1ccc(C(=O)NCCn3c([N+](=O)[O-])cnc3C)o1)C(C)(C)CCC2(C)C [drawing 1486]
93 | Cc1cc2c(cc1Cc1ccc(C(=O)NCCCOC(C)C)o1)C(C)(C)CCC2(C)C [drawing 1487]
102 | Cc1cc2c(cc1Cc1ccc(C(=O)N(CCCN3CCN(C)CC3)Cc3cc(C)n(-c4cccc(C(F)(F)F)c4)c3C)o1)C(C)(C)CCC2(C)C [drawing 1488]
103 | Cc1cc2c(cc1Cc1ccc(C(=O)N(CCN(C)C)Cc3cccc4ccccc34)o1)C(C)(C)CCC2(C)C [drawing 1489]
103 | Cc1cc2c(cc1Cc1ccc(C(=O)N(CCCN3CCN(C)CC3)Cc3ccc(F)cc3)o1)C(C)(C)CCC2(C)C [drawing 1490]
103 | Cc1cc2c(cc1Cc1ccc(C(=O)N(CCN(C)C)Cc3ccccc3[N+](=O)[O-])o1)C(C)(C)CCC2(C)C [drawing 1491]
105 | Cc1cc2c(cc1Cc1ccc(C(=O)N(CCC3CCCN3C)Cc3ccc4ccccc4c3)o1)C(C)(C)CCC2(C)C (stereo not drawn) [drawing 1492]
82 | Cc1cc2c(cc1Cc1ccc(C(=O)N3CCC(C)CC3)o1)C(C)(C)CCC2(C)C [drawing 1493]
62 | CCOC(=O)CN(Cc1ccccc1)C(=O)c1ccc(Cc2cc3c(cc2C)C(C)(C)CCC3(C)C)o1 [drawing 1494]
59 | Cc1cc2c(cc1Cc1ccc(C(=O)N3CCC(C(=O)c4ccccc4)CC3)o1)C(C)(C)CCC2(C)C [drawing 1495]
67 | COc1cccc(N2CCN(C(=O)c3ccc(Cc4cc5c(cc4C)C(C)(C)CCC5(C)C)o3)CC2)c1 [drawing 1497]
101 | Cc1cc2c(cc1Cc1ccc(C(=O)NCCSCCO)o1)C(C)(C)CCC2(C)C [drawing 1498]
73 | CCC(C)CNC(=O)c1ccc(Cc2cc3c(cc2C)C(C)(C)CCC3(C)C)o1 (stereo not drawn) [drawing 1499]
86 | Cc1cc2c(cc1Cc1ccc(C(=O)N(C)CC3OCCO3)o1)C(C)(C)CCC2(C)C [drawing 1500]
85 | Cc1cc2c(cc1Cc1ccc(C(=O)N(CC(C)C)CC(C)C)o1)C(C)(C)CCC2(C)C [drawing 1501]
52 | Cc1cc2c(cc1Cc1ccc(C(=O)N3C[C@H]4CCCC[C@H]4CC3C(=O)NC(C)(C)C)o1)C(C)(C)CCC2(C)C (stereo partly drawn) [drawing 1502]
73 | CC(=O)N1CCCN(C(=O)c2ccc(Cc3cc4c(cc3C)C(C)(C)CCC4(C)C)o2)CC1 [drawing 1503]
